Test results as given in patent US8410288B2, “Polymorphs of Saxagliptin hydrochloride and processes for preparing them” (Teva Pharmaceutical Industries Ltd., priority 2010, dated 2013).
Counter-ions that a name gives are not always drawn. Blank lines part the entries; values can stand above or below the compound they belong to.

Columns and labels:
Type in all cases: physicochemical
[1] = Particle morphology (SEM), filterability and powder flowability; settings: small plate to rod-shaped particles
From the text: Equipment: Jeol JSM-5800 scanning microscope, Sputtered with gold by Edwards S150 sputter coater

[2] = Tapped density measurement; settings: 450 mg sample; for tapped density: 10 ml graduated cylinder, tapped 200 times; for volume of sample after tapping: 10 ml measuring flask, tapped 200 times with equal force
Description: Samples were tapped the same number of times (200 times) with equal force. Volume of each sample was recorded: (1.4 ml for Form K; 1.6 ml for H2-1).

[3] = Solubility measurement (time to clear solution in distilled water); settings: compared to other solid state forms of Saxagliptin hydrochloride
Description: Equal mass of samples was suspended in equal volume of distilled water. Suspensions were slightly mixed, time was recorded at the moment of clear solution appearance.

SMILES: N#C[C@@H]1C[C@@H]2C[C@@H]2N1C(=O)[C@@H](N)C12CC3CC(CC(O)(C3)C1)C2 [form D, Saxagliptin hydrochloride]
filterability and powder flowability [1]: good filterability and powder flowability properties

tapped density ([2]; hydrochloride dihydrate): about 0.28 g/ml
volume of sample after tapping ([2]; hydrochloride dihydrate): 1.6 mL
SMILES: N#C[C@@H]1C[C@@H]2C[C@@H]2N1C(=O)[C@@H](N)C12CC3CC(CC(O)(C3)C1)C2 [form H2-1, Saxagliptin hydrochloride dihydrate, reference compound]

tapped density ([2]; hydrochloride): about 0.32 g/ml
volume of sample after tapping ([2]; hydrochloride): 1.4 mL
SMILES: N#C[C@@H]1C[C@@H]2C[C@@H]2N1C(=O)[C@@H](N)C12CC3CC(CC(O)(C3)C1)C2 [form K, Saxagliptin hydrochloride]

dissolution rate [3]: high dissolution rate
SMILES: N#C[C@@H]1C[C@@H]2C[C@@H]2N1C(=O)[C@@H](N)C12CC3CC(CC(O)(C3)C1)C2 [form Z, Saxagliptin hydrochloride]
